# What was measured:
# [1] = test system: HCC1428 breast cancer model; assay: In vivo efficacy (tumor growth inhibition) in the HR+/HER2− HCC1428 breast cancer model; parameters: species or system female NSG mice
# Description: HCC1428 cells (ATCC, CRL-2327) were maintained in PRMI-1640 medium, plus 10% FBS until ready for implant. HCC1428 model was established by serial in vivo propagation. To establish the HCC1428 donor mice, tumor cells (5×10^6 cell/mouse with 50% Cultrex® Basement Membrane Matrix) were subcutaneously implanted in female NSG mice with estrogen supplementation (SC implanted, in 0.36 mg 90-day release, Innovative Research of America, cat #NE-121). Once reaching a range of 700 to 800 mm3, donor tumors were subsequently transplanted into secondary recipient mice for a study expansion. In this study, the HCC1428 model was established by implanting passage 4 tumor fragments into recipient mice. […] TGI was assessed on Day 36 post first dose.
# Tumor volume and body weights were measured twice a week after dosing initiation. Tumor volume i was calculated using the [(Length×Width×Width)/2)] formula. TGI was calculated as 100*(1−ΔT/ΔC). […]
# [2] = test system: ST941 PDX breast cancer model; assay: In vivo efficacy (tumor growth inhibition) in the HR+/HER2− ST941 PDX model; parameters: species or system female athymic nude mice
# Description: The HR+/HER2− PDX studies were performed at START (San Antonio, TX) using female athymic nude mice (Foxn1nu/Foxn1nu, JAX Laboratories). Mice received 8.5 μg/mL β estradiol drinking water during study. The live donor mice were established by implanting cryopreserved tumor fragments (around 70 mg). Once ready, the donor tumor fragments were subsequently transplanted into secondary recipient mice for a study expansion.
# Palbocidib was dosed twice daily (7 hr apart). PF-06821497 and vehicle was dosed once daily. Fulvestrant was administered twice in the first week, then weekly afterwards. TGI was assessed on Day 36 post first dose.
# Tumor volume and body weights were measured twice a week after dosing initiation. Tumor volume i was calculated using the [(Length×Width×Width)/2)] formula. TGI was calculated as 100*(1−ΔT/ΔC). The ΔC (ΔT) was obtained by subtracting the mean tumor burden in the vehicle (treated) group on the first day of treatment (Day 0) from the mean tumor burden in vehicle (treated) group on the assessment day. All mice received treatment continuously until the day of efficacy assessment. Statistical analysis was performed in GraphPad Prism with an unpaired t test, followed by Mann-Whitney test.
# The ST941 tumor bearing mice were randomized into 4 groups when the mean tumor volume reached around 177 mm3 and subsequently treated.
structure (smiles),measurement,setting,value
"COc1cc(C)[nH]c(=O)c1CN1CCc2c(Cl)cc([C@H](OC)C3COC3)c(Cl)c2C1=O [PF-06821497, 5,8-dichloro-2-[(4-methoxy-6-methyl-2-oxo-1,2-dihydro-pyridin-3-yl)methyl]-7-[(R)-methoxy(oxetan-3-yl)methyl]-3,4-dihydroisoquinolin-1(2H)-one]",% TGI (D36),"[1]; Day 36 post first dose, TGI = 100*(1−ΔT/ΔC), doses and schedules per Table 1",55%
same,antitumor efficacy vs vehicle,[1]; p<0.05 vs vehicle,significant antitumor efficacy
same,% TGI (D18),"[2]; TGI = 100*(1−ΔT/ΔC), doses and schedules per Table 2",44.6%
same,antitumor efficacy vs vehicle,[2]; p<0.05 vs vehicle,significant antitumor efficacy

# Source: patent publication US20250049802A1, “COMBINATION THERAPIES AND USES FOR TREATING CANCER” (Pfizer Inc., priority 2021, published 2025)
